From patent US20130158362A1 (INFACARE PHARMACEUTICAL CORPORATION, priority 2011, published 2013)

Tested on: total serum bilirubin (TSB)
Assay: Phase 2b trial: total serum bilirubin (TSB), adjusted and unadjusted, change from baseline
Assay type: in vivo, human
Set-up: total serum bilirubin / total serum bilirubin, Delta (change from baseline) / Change from baseline of total serum bilirubin: unit not given here
Conditions: for change from baseline in unadjusted TSB, Mean (SD) / change from baseline in unadjusted TSB, Median / unadjusted TSB, Mean (SD) / unadjusted TSB, Median / change from baseline in adjusted TSB, LS mean (SEM) / change from baseline in adjusted TSB, LS mean difference versus placebo / change from baseline in unadjusted TSB, LS Mean (SEM) / change from baseline in unadjusted TSB, LS Mean Difference versus placebo / adjusted TSB, Mean (SD) / change from baseline in adjusted TSB, Mean (SD) / change from baseline in adjusted TSB, Median / change from baseline in adjusted TSB, LS mean difference versus placebo, MMRM / change from baseline in adjusted TSB, LS means (SEM), MMRM: ITT; for Change from baseline of total serum bilirubin: 4.5 mg/kg (N = 5); for change from baseline in adjusted TSB, LS mean difference versus placebo, MMRM / change from baseline in adjusted TSB, LS means (SEM), MMRM: observed case
Experimental: Three cohorts of subjects were recruited. This clinical study was designed to evaluate safety and efficacy parameters in each cohort.
Scheduled assessments (including TSB) occurred before treatment and at 0.75 and 2 hours (or 1.5 and 3 hours, depending on PK blood sampling assignment); 6, 12, 24, 48, and 72 hours; and 14 and 30 (except TSB) days after treatment or early termination.
The primary efficacy endpoint was the change in adjusted TSB from baseline to 48 hours after treatment. The adjusted TSB was a calculation of the percentage variance of the TSB level from the age specific threshold for PT initiation per the AAP Guidelines, i.e., an indication of the distance below the PT threshold by time.
The Secondary Efficacy Endpoints were the change from baseline in unadjusted TSB at 48 hours after treatment, change from baseline in adjusted and unadjusted TSB at various other time points after treatment, percent change from baseline in unadjusted TSB, proportion of subjects who require PT/exchange transfusion (ET), time to PT/ET, duration of PT and time to hospital discharge.
Intent-to-treat population (ITT): Defined as all subjects who were randomly assigned treatment in the clinical study, had received IMP, and had at least 1 post baseline TSB measurement during the first 48 hours after treatment. Subjects were summarized based on randomized treatment.
Analysis of Efficacy Parameters: The primary efficacy analysis applied the analysis of covariance (ANCOVA) method to determine if there was a significant difference between treatment groups in change in adjusted TSB levels from baseline to 48 hours post baseline after controlling for the effects of gestational age and adjusted baseline TSB levels. If assumptions of ANCOVA appeared to be violated, a Wilcoxon rank-sum test could be performed instead. Time-to-event variables were analyzed using the Kaplan-Meier method, and Kaplan-Meier survival curves were presented.

[1] = 3.0 mg/kg IM, 72 h, LOCF, ANCOVA
[2] = 3.0 mg/kg IM, 14 days/early termination, LOCF
[3] = 3.0 mg/kg IM, 14 days/early termination, LOCF, ANCOVA
[4] = 3.0 mg/kg versus the placebo group, 48 Hours/Early termination, PP Population, ANCOVA
[5] = 3.0 mg/kg, 48 Hours/Early termination, PP Population, LOCF
[6] = 3.0 mg/kg, 6 hrs, unadjusted TSB, ITT Population
[7] = 3.0 mg/kg, 12 hrs, unadjusted TSB, ITT Population
[8] = 3.0 mg/kg, 24 hrs, unadjusted TSB, ITT Population
[9] = 3.0 mg/kg, 48 hrs, unadjusted TSB, ITT Population
[10] = 3.0 mg/kg, baseline, PP Population
[11] = 3.0 mg/kg, baseline, unadjusted TSB, ITT Population
[12] = 4.5 mg/kg IM, 6 h, LOCF, ANCOVA
[13] = 4.5 mg/kg IM, 12 h, LOCF, ANCOVA

“tin IV mesoporphyrin IX dichloride [Stannsoporfin]” was tested, and the “change from baseline in unadjusted TSB, Mean (SD)” value (3.0 mg/kg IM, 72 h, LOCF) was 1.66 (3.496) mg/dL, the “change from baseline in unadjusted TSB, Median” value (3.0 mg/kg IM, 72 h, LOCF) was 2.45 mg/dL and the “unadjusted TSB, Mean (SD)” value (3.0 mg/kg IM, 72 h, LOCF) was 9.87 (3.681) mg/dL. For the same substance, the “unadjusted TSB, Median” value (3.0 mg/kg IM, 72 h, LOCF) was 10.70 mg/dL, the “change from baseline in adjusted TSB, LS mean (SEM)” value [1] was −19.28 (6.633) % and the “change from baseline in adjusted TSB, LS mean difference versus placebo” value [1] was −14.53%. For the same substance, the “change from baseline in unadjusted TSB, LS Mean (SEM)” value [1] was 2.77 (1.133) mg/dL, the “change from baseline in unadjusted TSB, LS Mean Difference versus placebo” value [1] was -2.18 mg/dL and the “change from baseline in unadjusted TSB, Mean (SD)” value [2] was −2.98 (5.389) mg/dL. The “change from baseline in unadjusted TSB, Median” value [2] was -4.80 mg/dL, the “unadjusted TSB, Mean (SD)” value [2] was 5.23 (5.123) mg/dL and the “unadjusted TSB, Median” value [2] was 3.40 mg/dL. The “change from baseline in unadjusted TSB, LS Mean (SEM)” value [3] was −2.42 (1.324) mg/dL, the “change from baseline in unadjusted TSB, LS Mean Difference versus placebo” value [3] was -0.12 mg/dL and the “48 Hours/Early termination change from baseline in unadjusted TSB, LS mean difference” value [4] was -1.74 mg/dL. For the same substance, the “P-value of LS mean difference, change from baseline in unadjusted TSB” value [4] was 0.078, the “48 Hours/Early termination change from baseline in unadjusted TSB, Max” value [5] was 5.4 mg/dL and the “48 Hours/Early termination change from baseline in unadjusted TSB, Mean (SD)” value [5] was 2.20 (2.928) mg/dL. The “48 Hours/Early termination change from baseline in unadjusted TSB, Median” value [5] was 2.87 mg/dL, the “48 Hours/Early termination change from baseline in unadjusted TSB, Min” value [5] was -3.4 mg/dL and the “48 Hours/Early termination unadjusted TSB, Max” value [5] was 13.8 mg/dL. The “48 Hours/Early termination unadjusted TSB, Mean (SD)” value [5] was 10.53 (2.911) mg/dL, the “48 Hours/Early termination unadjusted TSB, Median” value [5] was 11.60 mg/dL and the “48 Hours/Early termination unadjusted TSB, Min” value [5] was 4.2 mg/dL. The “48 Hours/Early termination change from baseline in unadjusted TSB, LS mean (SEM)” value (3.0 mg/kg, 48 Hours/Early termination, PP Population, LOCF, ANCOVA) was 2.20 (0.881) mg/dL, the “6 hrs Percent Change from Baseline in TSB, Max” value [6] was 59.0% and the “6 hrs Percent Change from Baseline in TSB, Mean (SD)” value [6] was 19.54 (12.055) %. For the same substance, the “6 hrs Percent Change from Baseline in TSB, Min” value [6] was −2.6%, the “6 hrs TSB, Max” value [6] was 12.3 mg/dL and the “6 hrs TSB, Mean (SD)” value [6] was 9.74 (1.730) mg/dL. For the same substance, the “6 hrs TSB, Min” value [6] was 6.8 mg/dL, the “12 hrs Percent Change from Baseline in TSB, Max” value [7] was 73.8% and the “12 hrs Percent Change from Baseline in TSB, Mean (SD)” value [7] was 26.17 (15.650) %. For the same substance, the “12 hrs Percent Change from Baseline in TSB, Min” value [7] was 0.0%, the “12 hrs TSB, Max” value [7] was 12.2 mg/dL and the “12 hrs TSB, Mean (SD)” value [7] was 10.26 (1.748) mg/dL. For the same substance, the “12 hrs TSB, Min” value [7] was 6.9 mg/dL, the “24 hrs Percent Change from Baseline in TSB, Max” value [8] was 86.9% and the “24 hrs Percent Change from Baseline in TSB, Mean (SD)” value [8] was 24.84 (23.900) %. The “24 hrs Percent Change from Baseline in TSB, Median” value [8] was 23.00%, the “24 hrs Percent Change from Baseline in TSB, Min” value [8] was −11.8% and the “24 hrs TSB, Max” value [8] was 11.9 mg/dL. The “24 hrs TSB, Mean (SD)” value [8] was 10.06 (1.757) mg/dL, the “24 hrs TSB, Min” value [8] was 6.7 mg/dL and the “48 hrs Percent Change from Baseline in TSB, Max” value [9] was 88.5%. The “48 hrs Percent Change from Baseline in TSB, Mean (SD)” value [9] was 31.84 (36.062) %, the “48 hrs Percent Change from Baseline in TSB, Min” value [9] was −44.7% and the “48 hrs TSB, Max” value [9] was 14.1 mg/dL. The “48 hrs TSB, Mean (SD)” value [9] was 10.68 (2.956) mg/dL, the “48 hrs TSB, Min” value [9] was 4.2 mg/dL and the “mean TSB levels” value (3.0 mg/kg, 14 days after treatment (text, not LOCF table)) was 5.23 mg/dL. For the same substance, the “Baseline unadjusted TSB, Max” value [10] was 10.4 mg/dL, the “Baseline unadjusted TSB, Mean (SD)” value [10] was 8.33 (1.585) mg/dL and the “Baseline unadjusted TSB, Median” value [10] was 8.90 mg/dL. The “Baseline unadjusted TSB, Min” value [10] was 6.0 mg/dL, the “Baseline TSB, Max” value [11] was 10.4 mg/dL and the “Baseline TSB, Mean (SD)” value [11] was 8.21 (1.577) mg/dL. For the same substance, the “Baseline TSB, Min” value [11] was 5.5 mg/dL, the “Change from baseline of total serum bilirubin” value (6 hours, preliminary data) was 1.69 ± 0.50 and the “Change from baseline of total serum bilirubin” value (24 hours, preliminary data) was 0.93 ± 0.20. The “Change from baseline of total serum bilirubin” value (48 hours, preliminary data) was 0.80 ± 2.79, the total serum bilirubin (4.5 mg/kg IM (N = 5), 48 hours, treated per protocol, preliminary data) was 9.88 ± 2.8 and the “adjusted TSB, Mean (SD)” value (4.5 mg/kg IM, 6 h, LOCF) was −4.49 (11.322) %. For the same substance, the “change from baseline in adjusted TSB, Mean (SD)” value (4.5 mg/kg IM, 6 h, LOCF) was 4.70 (4.583) %, the “change from baseline in adjusted TSB, Median” value (4.5 mg/kg IM, 6 h, LOCF) was 4.10% and the “change from baseline in unadjusted TSB, Mean (SD)” value (4.5 mg/kg IM, 6 h, LOCF) was 1.69 (0.493) mg/dL. The “change from baseline in unadjusted TSB, Median” value (4.5 mg/kg IM, 6 h, LOCF) was 1.61 mg/dL, the “unadjusted TSB, Mean (SD)” value (4.5 mg/kg IM, 6 h, LOCF) was 11.27 (2.074) mg/dL and the “unadjusted TSB, Median” value (4.5 mg/kg IM, 6 h, LOCF) was 11.25 mg/dL. For the same substance, the “change from baseline in adjusted TSB, LS mean (SEM)” value [12] was 4.03 (2.697) %, the “change from baseline in adjusted TSB, LS mean difference versus placebo” value [12] was −0.35% and the “change from baseline in unadjusted TSB, LS Mean (SEM)” value [12] was 1.62 (0.293) mg/dL. For the same substance, the “change from baseline in unadjusted TSB, LS Mean Difference versus placebo” value [12] was 0.03 mg/dL, the “change from baseline in adjusted TSB, LS mean difference versus placebo, MMRM” value (4.5 mg/kg IM, 6 h) was −2.38% and the “change from baseline in adjusted TSB, LS means (SEM), MMRM” value (4.5 mg/kg IM, 6 h) was 2.00 (2.825) %. The “adjusted TSB, Mean (SD)” value (4.5 mg/kg IM, 12 h, LOCF) was −7.80 (9.906) %, the “change from baseline in adjusted TSB, Mean (SD)” value (4.5 mg/kg IM, 12 h, LOCF) was 1.39 (6.394) % and the “change from baseline in adjusted TSB, Median” value (4.5 mg/kg IM, 12 h, LOCF) was −0.70%. For the same substance, the “change from baseline in unadjusted TSB, Mean (SD)” value (4.5 mg/kg IM, 12 h, LOCF) was 1.89 (0.421) mg/dL, the “change from baseline in unadjusted TSB, Median” value (4.5 mg/kg IM, 12 h, LOCF) was 1.92 mg/dL and the “unadjusted TSB, Mean (SD)” value (4.5 mg/kg IM, 12 h, LOCF) was 11.48 (1.924) mg/dL. The “unadjusted TSB, Median” value (4.5 mg/kg IM, 12 h, LOCF) was 11.27 mg/dL, the “change from baseline in adjusted TSB, LS mean (SEM)” value [13] was 2.17 (3.960) % and the “change from baseline in adjusted TSB, LS mean difference versus placebo” value [13] was −4.96%. For the same substance, the “change from baseline in unadjusted TSB, LS Mean (SEM)” value [13] was 1.95 (0.453) mg/dL, the “change from baseline in unadjusted TSB, LS Mean Difference versus placebo” value [13] was -0.65 mg/dL and the “change from baseline in adjusted TSB, LS mean difference versus placebo, MMRM” value (4.5 mg/kg IM, 12 h) was −8.38%. For the same substance, the “change from baseline in adjusted TSB, LS means (SEM), MMRM” value (4.5 mg/kg IM, 12 h) was −2.41 (3.856) %, the “adjusted TSB, Mean (SD)” value (4.5 mg/kg IM, 24 h, LOCF) was −24.66 (15.145) % and the “change from baseline in adjusted TSB, Mean (SD)” value (4.5 mg/kg IM, 24 h, LOCF) was −15.48 (18.694) %.
